From the NIST ThermoML archive (doi:10.1016/j.jct.2004.09.005)
Where “and” joins values, the source holds several entries; their conditions need not be identical. Equal entries are not always repeated.

Experiments:
[1] = Molar enthalpy of transition or fusion; settings: Crystal; DSC
[2] = Crystal; for vapor or sublimation pressure: Calculated from knudsen effusion weight loss; for Normal melting temperature: DTA

O=C(O)c1cccc(Br)c1 [3-bromobenzoic acid]
Settings | Molar enthalpy of transition or fusion [kcal/mol] | Normal melting temperature [°C]
[1] | 5.95 | –
[2] | – | 156.93

[2]
Settings | vapor or sublimation pressure
327.67 K | 0.000111 kPa and 0.000113 kPa
330.66 K | 0.00016 kPa and 0.000152 kPa
332.64 K | 0.0002 kPa and 0.000196 kPa
335.16 K | 0.00025 kPa and 0.000253 kPa and 0.000261 kPa
337.71 K | 0.000354 kPa and 0.000351 kPa and 0.00035 kPa
340.14 K | 0.000464 kPa and 0.000451 kPa and 0.00045 kPa
342.65 K | 0.000596 kPa and 0.00059 kPa and 0.000584 kPa
345.15 K | 0.000783 kPa and 0.00077 kPa and 0.000767 kPa
347.6 K | 0.000995 kPa and 0.001004 kPa and 0.000982 kPa

O=C(O)c1ccc(Br)cc1 [4-bromobenzoic acid]
Settings | Molar enthalpy of transition or fusion [kcal/mol] | Normal melting temperature [°C]
[1] | 7.38 | –
[2] | – | 253.19

[2]
Settings | vapor or sublimation pressure
348.67 K | 0.000155 kPa and 0.000153 kPa and 0.000152 kPa
350.14 K | 0.000176 kPa and 0.00018 kPa and 0.000175 kPa
351.67 K | 0.000202 kPa and 0.000205 kPa
353.14 K | 0.000245 kPa and 0.00024 kPa
354.65 K | 0.000276 kPa and 0.000278 kPa
356.17 K | 0.000331 kPa and 0.000324 kPa and 0.000326 kPa
357.67 K | 0.000384 kPa and 0.000389 kPa and 0.000376 kPa
359.24 K | 0.000448 kPa and 0.000429 kPa and 0.000447 kPa
360.65 K | 0.000517 kPa and 0.000495 kPa and 0.000512 kPa
362.22 K | 0.000609 kPa and 0.000617 kPa and 0.000611 kPa
363.63 K | 0.000692 kPa and 0.000703 kPa and 0.000683 kPa
365.23 K | 0.00082 kPa and 0.000809 kPa
366.65 K | 0.000932 kPa and 0.000909 kPa

O=C(O)c1cccc(Cl)c1 [3-chlorobenzoic acid]
Settings | Molar enthalpy of transition or fusion [kcal/mol] | Normal melting temperature [°C]
[1] | 5.66 | –
[2] | – | 154.72

[2]
Settings | vapor or sublimation pressure
320.13 K | 0.000109 kPa and 0.000106 kPa and 0.000104 kPa
321.18 K | 0.000122 kPa and 0.00012 kPa and 0.000117 kPa
324.17 K | 0.000173 kPa and 0.000171 kPa and 0.00017 kPa
327.14 K | 0.000241 kPa and 0.000236 kPa and 0.000245 kPa
330.15 K | 0.000335 kPa and 0.000327 kPa and 0.000324 kPa
333.17 K | 0.000474 kPa and 0.000472 kPa and 0.00047 kPa
336.13 K | 0.000655 kPa and 0.000644 kPa
339.01 K | 0.000896 kPa and 0.000873 kPa and 0.000877 kPa
340.13 K | 0.001012 kPa and 0.000984 kPa and 0.00099 kPa

O=C(O)c1ccccc1Br [2-bromobenzoic acid]
Settings | Molar enthalpy of transition or fusion [kcal/mol] | Normal melting temperature [°C]
[1] | 5.93 | –
[2] | – | 148.5

[2]
Settings | vapor or sublimation pressure
327.56 K | 9.4e-05 kPa and 9.1e-05 kPa
330.16 K | 0.000127 kPa and 0.000126 kPa and 0.000125 kPa
332.67 K | 0.000169 kPa and 0.000174 kPa and 0.000167 kPa
335.15 K | 0.000227 kPa and 0.000223 kPa and 0.000224 kPa
337.69 K | 0.000297 kPa and 0.000299 kPa and 0.000296 kPa
340.16 K | 0.000402 kPa and 0.000394 kPa and 0.000392 kPa
342.63 K | 0.000533 kPa and 0.000524 kPa
345.16 K | 0.000665 kPa and 0.000698 kPa and 0.000678 kPa
347.68 K | 0.000908 kPa and 0.000897 kPa and 0.000878 kPa

O=C(O)c1ccccc1Cl [2-chlorobenzoic acid]
Settings | Molar enthalpy of transition or fusion [kcal/mol] | Normal melting temperature [°C]
[1] | 6.03 | –
[2] | – | 140.80

[2]
Settings | vapor or sublimation pressure
320.16 K | 0.000103 kPa and 0.000102 kPa and 0.0001 kPa
322.16 K | 0.000127 kPa and 0.000126 kPa
324.14 K | 0.000166 kPa and 0.000164 kPa and 0.000163 kPa
326.14 K | 0.000205 kPa and 0.000204 kPa and 0.000206 kPa
329.15 K | 0.0003 kPa and 0.000294 kPa
332.13 K | 0.000417 kPa and 0.000414 kPa and 0.00041 kPa
335.18 K | 0.000584 kPa and 0.000582 kPa and 0.000576 kPa
337.14 K | 0.000734 kPa and 0.000721 kPa
339.15 K | 0.000934 kPa and 0.000935 kPa and 0.00092 kPa
